Assay results taken from patent US11020482B2, “Methods and compositions related to inhibition of viral entry” (UNIVERSITY OF UTAH RESEARCH FOUNDATION, priority 2011, dated 2021).
Read-outs that look alike come from different tables or passages of the source.

Experiments:
[1] = system: HIV HXB2 strain pseudovirions; test: Pseudovirion viral infectivity (entry) assay, HXB2; assay type: cell-based, HIV-1
Description: (§1) This study included the use of the HIV HXB2 strain and the HIV JRFL strain. Viral infectivity was measured essentially as previously described (Hamburger 2005) with several modifications. 8 μg/mL DEAE-Dextran was used as a fusion enhancer in all assays. Media was changed 22-26 h following infection. […] Fits were weighted by the absolute s.e.m. from quadruplicate points with the minimum allowable error set to 1%.
(§2) Pseudovirion infectivity assays were carried out using HIV HXB2 strain and HIV JRFL strain luciferase reporter pseudovirions (NL4-3 strain) and HOS-CD4-CXCR4 (for HXB2) or HOS-CD4-CCR5 (for JRFL) target cells (Welch, 2007 and 2010). Inhibitors curves were generated using six concentration points measured in quadruplicate, and luciferase counts were normalized to an uninhibited control. Inhibition curves were fit using a standard IC50 equation (1-c/(IC50+c)) weighting each concentration point by its standard error in KaleidaGraph™ (Synergy Software). Reported IC50 values are the average of at least 2 independent assays.

[2] = system: HIV JRFL strain pseudovirions; test: Pseudovirion viral infectivity (entry) assay, JRFL; assay type: cell-based, HIV-1
Description: as §1, §2

[3] = system: HIV JRFL strain pseudovirions; details: Table 5; value marked * (from 20); cited from earlier work
[4] = system: HIV HXB2 strain pseudovirions; details: Table 5; value marked * (from 20); cited from earlier work
E560K/V570I HXB2 = test: Pseudovirion entry assay, resistant strain E560K/V570I; assay type: cell-based, HIV-1; details: Table 4; resistance mutation discovered against PIE7-dimer
Description: as §2

Q577R HXB2 = test: Pseudovirion entry assay, resistant strain Q577R; assay type: cell-based, HIV-1; details: Table 4; resistance mutation discovered against PIE12-trimer
Description: as §2

HIV = test: Infectivity assay; assay type: cell-based
HIV-1 isolate IIIB = test: Replication competent virus, PBMC target cells; assay type: cell-based; details: envelope subtype B
HIV-1 isolate RU570 = test: Replication competent virus, PBMC target cells; assay type: cell-based; details: isolate RU570, envelope subtype G
HIV-1 isolate 93IN101 = test: Replication competent virus, PBMC target cells; assay type: cell-based; details: isolate 93IN101, envelope subtype C
HIV-1 isolate 92UG029 = test: Replication competent virus, PBMC target cells; assay type: cell-based; details: isolate 92UG029, envelope subtype A
HIV-1 isolate G3 = test: Replication competent virus, PBMC target cells; assay type: cell-based; details: isolate G3, envelope subtype G
HIV-1 isolate 93TH073 = test: Replication competent virus, PBMC target cells; assay type: cell-based; details: isolate 93TH073, envelope subtype E
HIV-1 isolate 92UG046 = test: Replication competent virus, PBMC target cells; assay type: cell-based; details: isolate 92UG046, envelope subtype D
HIV-1 isolate 92UG001 = test: Replication competent virus, PBMC target cells; assay type: cell-based; details: isolate 92UG001, envelope subtype D
HIV-1 isolate JR-FL = test: Replication competent virus, PBMC target cells; assay type: cell-based; details: envelope subtype B
HIV-1 isolate Ba-L = test: Replication competent virus, PBMC target cells; assay type: cell-based; details: envelope subtype B
HIV-1 isolate 92UG037 = test: Replication competent virus, PBMC target cells; assay type: cell-based; details: isolate 92UG037, envelope subtype A
HIV-1 isolate 93BR019 = test: Replication competent virus, PBMC target cells; assay type: cell-based; details: isolate 93BR019, envelope subtype BF
HIV-1 isolate 93BR020 = test: Replication competent virus, PBMC target cells; assay type: cell-based; details: isolate 93BR020, envelope subtype F
HIV-1 isolate JR-CSF = test: Replication competent virus, PBMC target cells; assay type: cell-based; details: envelope subtype B
HIV-1 isolate CMU06 = test: Replication competent virus, PBMC target cells; assay type: cell-based; details: isolate CMU06, envelope subtype E
HIV-1 isolate CMU02 = test: Replication competent virus, PBMC target cells; assay type: cell-based; details: isolate CMU02, envelope subtype AE
HIV-1 isolate 93BR029 = test: Replication competent virus, PBMC target cells; assay type: cell-based; details: isolate 93BR029, envelope subtype F
[5] = system: replication competent HIV strains that cover envelope subtypes A, B, C, D, E, F, and G; test: Inhibitory breadth against replication competent virus panel; assay type: cell-based, HIV-1
HIV-1 isolate 92BR025 = test: Replication competent virus, PBMC target cells; assay type: cell-based; details: isolate 92BR025, envelope subtype C
[6] = Table 4, cholesterol potency-enhancing cargo

GACDYPEWQWLCAAGK [PIE7-GK]
IC50 ([1]; Table 2, pseudovirion entry): 390 nM
IC50 ([2]; Table 2, pseudovirion entry): 15800 nM

GACDYPEWQWLCAAGKK [PIE7-GKK]
IC50 ([1]; Table 2, pseudovirion entry): 380 nM
IC50 ([2]; Table 2, pseudovirion entry): 19100 nM

HACDYPEWQWLCELGK [PIE15]
IC50 ([1]; Table 2, pseudovirion entry): 67 nM
IC50 ([2]; Table 2, pseudovirion entry): 1450 nM

HPCDYPEWQWLCELGK [PIE12]
IC50 ([1]; Table 2, pseudovirion entry): 37 nM
IC50 [1, 6]: 37 nM
IC50 [3]: 580 ± 21.4 nM
IC50 [4]: 37 ± 2.3 nM
IC50 ([2]; Table 2, pseudovirion entry): 578 nM
IC50 [2, 6]: 580 nM
IC50 (E560K/V570I HXB2): 240 nM
IC50 (Q577R HXB2): 10200 nM

HPCDYPEWQWLCKLGK [PIE13]
IC50 ([1]; Table 2, pseudovirion entry): 41 nM
IC50 ([2]; Table 2, pseudovirion entry): 1470 nM

HPCDYPEWQWLCRLGK [PIE14]
IC50 ([1]; Table 2, pseudovirion entry): 33 nM
IC50 ([2]; Table 2, pseudovirion entry): 1050 nM

KGACDYKEWQWLCAA [PIE8]
IC50 ([2]; Table 2, pseudovirion entry): ~110000 nM

KGACDYPEWQWLCAA [PIE7]
IC50 ([1]; Table 2, pseudovirion entry): 620 nM
IC50 ([2]; Table 2, pseudovirion entry): 24000 nM

KGACDYPEWQWLCAAGK [K-PIE7-GK]
IC50 ([2]; Table 2, pseudovirion entry): 14800 nM

KGACDYPEWRWLCAA [PIE2]
IC50 ([2]; Table 2, pseudovirion entry): 66000 nM

KKGACELLGWEWAWLCAA [D10-p5]
inhibit infection of cells (HIV): inhibit infection of cells
IC50 ([2]; Table 2, pseudovirion entry): > 25000 nM

KKGACESPEWRWLCAA [2K-PIE1]
IC50 ([2]; Table 2, pseudovirion entry): > 100000 nM

enfuvirtide [FUZEON ®]
IC50 (HIV-1 isolate IIIB): 28.3 nM
IC50 (HIV-1 isolate RU570): 37 nM
IC50 (HIV-1 isolate 93IN101): 22.4 nM
IC50 ([1]; Table 2, pseudovirion entry): 3.7 nM
IC50 (HIV-1 isolate 92UG029): 191 nM
IC50 (HIV-1 isolate G3): 23.3 nM
IC50 (HIV-1 isolate 93TH073): 198 nM
IC50 (HIV-1 isolate 92UG046): 130 nM
IC50 (HIV-1 isolate 92UG001): 182 nM
IC50 (HIV-1 isolate JR-FL): 1.65 nM
IC50 (HIV-1 isolate Ba-L): 19.7 nM
IC50 ([2]; Table 2, pseudovirion entry): 5 nM
IC50 (HIV-1 isolate 92UG037): 41.5 nM
IC50 (HIV-1 isolate 93BR019): > 1000 nM
IC50 (HIV-1 isolate 93BR020): 58.5 nM
IC50 (HIV-1 isolate JR-CSF): 7.03 nM
IC50 (HIV-1 isolate CMU06): 5.65 nM
IC50 (HIV-1 isolate CMU02): 43.8 nM
IC50 (HIV-1 isolate 93BR029): 18.6 nM
fold less inhibition than PIE12-trimer ([5]; HIV subtype A viruses): > 100 fold
fold less inhibition than PIE12-trimer ([5]; subtype C viruses): ~60 fold
IC50 (HIV-1 isolate 92BR025): 305 nM
